Data taken from patent US9708314B2, “Heterocyclic amide compound” (NISSAN CHEMICAL INDUSTRIES, LTD., priority 2013, dated 2017).

Legend:
Format in all cases: in vivo
[1] = test system: transplanted Oryza sativa; assay: Test Example 1: effect on crop, application before weed generation in submerged conditions; details: Application herbicide amount 320 g/ha; Seventeenth Table
Summary of the method: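 Alluvial soil in Wagner pots flooded to 4 cm water depth; weed seeds sown and 2.5 leaf stage rice seedlings transplanted. Emulsion diluted in water applied to water surface on sowing day at stated g/ha. Greenhouse 25° C. to 30° C.; effects scored 0–5 by herbicidal ratio after three weeks.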

[2] = test system: Scirpus juncoides; assay: Test Example 2: herbicidal activity, application during weed generation in submerged conditions; details: Eighteenth Table; application herbicide amount 320 g/ha
Summary of the method: (§1)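 Alluvial soil in Wagner pots flooded to 4 cm water depth; seeds sown mixed, grown in greenhouse at 25–30 °C. At one- to two-leaf stage, emulsion diluted with water to the set rate (g/ha) was applied to the water surface. Effect scored 0–5 by herbicidal ratio three weeks later.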

[3] = test system: Monochoria vaginalis; assay: as above; details: Eighteenth Table; application herbicide amount 320 g/ha
Summary of the method: as §1

[4] = test system: Echinochloa oryzacola Vasing.; assay: as above; details: Eighteenth Table; application herbicide amount 320 g/ha
Summary of the method: as §1

[5] = test system: Triticum aestivum; assay: Test Example 4: effect on crop by application to foliage (diluvial soil, plastic box); details: for e (Triticum aestivum) effect on crop grade: foliage application; for e: effect on crop, Triticum aestivum: application to foliage, application herbicide amount 320 g/ha
Summary of the method: (§2)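 Scores run from 0 (herbicidal ratio ≤5%) to 5 (≥90%, almost fully withered) and were assessed three weeks after foliar spraying. Seedlings had been raised for 14 days at 25-30° C in sterilized diluvial soil before treatment, with the emulsion diluted in water to the stated g/ha dose.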

[6] = test system: Beta vulgaris ssp. vulgaris; assay: as above; details: for f (Beta vulgaris ssp. vulgaris) effect on crop grade: foliage application; for f: effect on crop, Beta vulgaris ssp. vulgaris: application to foliage, application herbicide amount 320 g/ha
Summary of the method: as §2

[7] = test system: directly sowed Oryza sativa; assay: as above; details: for b (directly sowed Oryza sativa) effect on crop grade: foliage application; for b: effect on crop, directly sowed Oryza sativa: application to foliage, application herbicide amount 320 g/ha
Summary of the method: as §2

[8] = test system: Brassica campestris L.; assay: as above; details: for g (Brassica campestris L.) effect on crop grade: foliage application; for g: effect on crop, Brassica campestris L.: application to foliage, application herbicide amount 320 g/ha
Summary of the method: as §2

[9] = test system: Zea mays; assay: as above; details: for c (Zea mays) effect on crop grade: foliage application; for c: effect on crop, Zea mays: application to foliage, application herbicide amount 320 g/ha
Summary of the method: as §2

[10] = Application herbicide amount 320 g/ha
[11] = Application herbicide amount 320 g/ha, effect on crop

COCCN(C)c1nnc2c(C(=O)Nc3nnco3)ccc(C(F)(F)F)n12 [1-121]
a: transplanted Oryza sativa (effect on crop grade) [1]: 3 (Herbicidal ratio of 40% or more and less than 70%)
B (Scirpus juncoides) herbicidal ratio grade [2]: 4 (Herbicidal ratio of 70% or more and less than 90%)
C (Monochoria vaginalis) herbicidal ratio grade [3]: 4 (Herbicidal ratio of 70% or more and less than 90%)
A (Echinochloa oryzicola Vasing.) herbicidal ratio grade [4]: 4 (Herbicidal ratio of 70% or more and less than 90%)
e (Triticum aestivum) effect on crop grade [5, 10]: 3 (Herbicidal ratio of 40% or more and less than 70%)
f (Beta vulgaris ssp. vulgaris) effect on crop grade [6, 10]: 5 (Herbicidal ratio of 90% or more (almost completely withered))
b (directly sowed Oryza sativa) effect on crop grade [7, 10]: 2 (Herbicidal ratio of 20% or more and less than 40%)
g (Brassica campestris L.) effect on crop grade [8, 10]: 5 (Herbicidal ratio of 90% or more (almost completely withered))
c (Zea mays) effect on crop grade [9, 10]: 2 (Herbicidal ratio of 20% or more and less than 40%)

Cc1nnc(NC(=O)c2ccc(C(F)(F)F)n3c(N(C)CCC#N)nnc23)o1 [1-153]
a: transplanted Oryza sativa (effect on crop grade) [1]: 2 (Herbicidal ratio of 20% or more and less than 40%)
B (Scirpus juncoides) herbicidal ratio grade [2]: 3 (Herbicidal ratio of 40% or more and less than 70%)
C (Monochoria vaginalis) herbicidal ratio grade [3]: 3 (Herbicidal ratio of 40% or more and less than 70%)
A (Echinochloa oryzicola Vasing.) herbicidal ratio grade [4]: 3 (Herbicidal ratio of 40% or more and less than 70%)
e (Triticum aestivum) effect on crop grade [5, 10]: 2 (Herbicidal ratio of 20% or more and less than 40%)
f (Beta vulgaris ssp. vulgaris) effect on crop grade [6, 10]: 5 (Herbicidal ratio of 90% or more (almost completely withered))
b (directly sowed Oryza sativa) effect on crop grade [7, 10]: 3 (Herbicidal ratio of 40% or more and less than 70%)
g (Brassica campestris L.) effect on crop grade [8, 10]: 3 (Herbicidal ratio of 40% or more and less than 70%)
c (Zea mays) effect on crop grade [9, 10]: 0 (Herbicidal ratio of 5% or less (almost no effect))

CC(C)c1nnc2c(C(=O)N(C)c3nnnn3C)ccc(C(F)(F)F)n12 [2-023]
a: transplanted Oryza sativa (effect on crop grade) [1]: 3 (Herbicidal ratio of 40% or more and less than 70%)
B (Scirpus juncoides) herbicidal ratio grade [2]: 1 (Herbicidal ratio of 5% or more and less than 20%)
C (Monochoria vaginalis) herbicidal ratio grade [3]: 1 (Herbicidal ratio of 5% or more and less than 20%)
A (Echinochloa oryzicola Vasing.) herbicidal ratio grade [4]: 0 (Herbicidal ratio of 5% or less (almost no effect))
e: effect on crop, Triticum aestivum [5]: 0 (Herbicidal ratio of 5% or less (almost no effect))
f: effect on crop, Beta vulgaris ssp. vulgaris [6]: 4 (Herbicidal ratio of 70% or more and less than 90%)
b: effect on crop, directly sowed Oryza sativa [7]: 0 (Herbicidal ratio of 5% or less (almost no effect))
g: effect on crop, Brassica campestris L. [8]: 1 (Herbicidal ratio of 5% or more and less than 20%)
c: effect on crop, Zea mays [9]: 0 (Herbicidal ratio of 5% or less (almost no effect))

Cc1nnc(NC(=O)c2ccc(C(F)(F)F)n3c(SCC4CCCO4)nnc23)o1 (stereo not drawn) [1-116]
a: transplanted Oryza sativa (effect on crop grade) [1]: 0 (Herbicidal ratio of 5% or less (almost no effect))
B (Scirpus juncoides) herbicidal ratio grade [2]: 4 (Herbicidal ratio of 70% or more and less than 90%)
C (Monochoria vaginalis) herbicidal ratio grade [3]: 0 (Herbicidal ratio of 5% or less (almost no effect))
A (Echinochloa oryzicola Vasing.) herbicidal ratio grade [4]: 3 (Herbicidal ratio of 40% or more and less than 70%)
e (Triticum aestivum) effect on crop grade [5, 10]: 2 (Herbicidal ratio of 20% or more and less than 40%)
f (Beta vulgaris ssp. vulgaris) effect on crop grade [6, 10]: 5 (Herbicidal ratio of 90% or more (almost completely withered))
b (directly sowed Oryza sativa) effect on crop grade [7, 10]: 0 (Herbicidal ratio of 5% or less (almost no effect))
g (Brassica campestris L.) effect on crop grade [8, 10]: 4 (Herbicidal ratio of 70% or more and less than 90%)
c (Zea mays) effect on crop grade [9, 10]: 0 (Herbicidal ratio of 5% or less (almost no effect))

Cc1nnc(NC(=O)c2ccc(C(F)(F)F)n3c(-c4cc5ccccc5n4C)nnc23)o1 [1-059]
a: transplanted Oryza sativa (effect on crop grade) [1]: 0 (Herbicidal ratio of 5% or less (almost no effect))
B (Scirpus juncoides) herbicidal ratio grade [2]: 3 (Herbicidal ratio of 40% or more and less than 70%)
C (Monochoria vaginalis) herbicidal ratio grade [3]: 2 (Herbicidal ratio of 20% or more and less than 40%)
A (Echinochloa oryzicola Vasing.) herbicidal ratio grade [4]: 2 (Herbicidal ratio of 20% or more and less than 40%)
e [5, 11]: 0 (Herbicidal ratio of 5% or less (almost no effect))
f [6, 11]: 0 (Herbicidal ratio of 5% or less (almost no effect))
d [7, 11]: 0 (Herbicidal ratio of 5% or less (almost no effect))
g [8, 11]: 0 (Herbicidal ratio of 5% or less (almost no effect))
b [9, 11]: 0 (Herbicidal ratio of 5% or less (almost no effect))

Cc1nnc(NC(=O)c2ccc(C(F)(F)F)n3c(SCc4ccccc4)nnc23)o1 [1-113]
a: transplanted Oryza sativa (effect on crop grade) [1]: 0 (Herbicidal ratio of 5% or less (almost no effect))
B (Scirpus juncoides) herbicidal ratio grade [2]: 0 (Herbicidal ratio of 5% or less (almost no effect))
C (Monochoria vaginalis) herbicidal ratio grade [3]: 0 (Herbicidal ratio of 5% or less (almost no effect))
A (Echinochloa oryzicola Vasing.) herbicidal ratio grade [4]: 2 (Herbicidal ratio of 20% or more and less than 40%)
e (Triticum aestivum) effect on crop grade [5, 10]: 0 (Herbicidal ratio of 5% or less (almost no effect))
f (Beta vulgaris ssp. vulgaris) effect on crop grade [6, 10]: 3 (Herbicidal ratio of 40% or more and less than 70%)
b (directly sowed Oryza sativa) effect on crop grade [7, 10]: 0 (Herbicidal ratio of 5% or less (almost no effect))
g (Brassica campestris L.) effect on crop grade [8, 10]: 0 (Herbicidal ratio of 5% or less (almost no effect))
c (Zea mays) effect on crop grade [9, 10]: 0 (Herbicidal ratio of 5% or less (almost no effect))

Cn1nnnc1NC(=O)c1ccc(C(F)(F)F)n2c(COCC(F)(F)F)nnc12 [2-015]
a: transplanted Oryza sativa (effect on crop grade) [1]: 1 (Herbicidal ratio of 5% or more and less than 20%)
B (Scirpus juncoides) herbicidal ratio grade [2]: 5 (Herbicidal ratio of 90% or more (almost completely withered))
C (Monochoria vaginalis) herbicidal ratio grade [3]: 4 (Herbicidal ratio of 70% or more and less than 90%)
A (Echinochloa oryzicola Vasing.) herbicidal ratio grade [4]: 4 (Herbicidal ratio of 70% or more and less than 90%)
e: effect on crop, Triticum aestivum [5]: 2 (Herbicidal ratio of 20% or more and less than 40%)
f: effect on crop, Beta vulgaris ssp. vulgaris [6]: 4 (Herbicidal ratio of 70% or more and less than 90%)
b: effect on crop, directly sowed Oryza sativa [7]: 4 (Herbicidal ratio of 70% or more and less than 90%)
g: effect on crop, Brassica campestris L. [8]: 3 (Herbicidal ratio of 40% or more and less than 70%)
c: effect on crop, Zea mays [9]: 2 (Herbicidal ratio of 20% or more and less than 40%)
